Read-outs that look alike come from different tables or passages of the source. Each block holds one compound with its values, some of them ahead of it.
Key:
[1] = molecular target: T1, human PPARγ (Homo sapiens, UniProt P37231); assay: PPARγ activation test (GAL-4/luciferase reporter in NIH/3T3 cell); format: cell-based; conditions: luciferase activity, 24 hrs incubation
T1 construct: expressed in transfected cells; host or cells: NIH/3T3
T1 sequence (P37231 238-503 limits assumed): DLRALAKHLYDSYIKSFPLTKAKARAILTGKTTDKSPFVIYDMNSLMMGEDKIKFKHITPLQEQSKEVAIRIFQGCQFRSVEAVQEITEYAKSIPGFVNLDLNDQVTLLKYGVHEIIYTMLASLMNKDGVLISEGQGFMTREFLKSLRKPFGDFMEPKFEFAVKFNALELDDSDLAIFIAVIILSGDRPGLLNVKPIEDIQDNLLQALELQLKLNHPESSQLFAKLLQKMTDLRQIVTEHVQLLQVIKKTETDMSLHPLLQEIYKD
Protocol: The activity for PPARγ activation was examined as follows.
The vector fused with ligand binding domain of a human PPARγ gene and DNA binding site of a yeast GAL-4 gene, and luciferase reporter vector were simultaneously transfected in NIH/3T3 cell. The cells were cultured for 24 hrs. The solution containing the cells at a concentration of 2×10^4 cells/well was placed on a 96-well plate. Then, each of the test compounds of the present invention and the control group without test compounds was added thereto. After incubating for 24 hrs, the cells were subjected to lysis.

[2] = system: C57/BL6J mice; assay: Adverse side effects check (weight, heart weight, liver weight, GPT/GOT) in high fat diet C57/BL6J mice; conditions: for GOT / GPT / Heart Weight / Liver Weight / Weight: high fat diet C57/BL6J mice
Protocol: (§2) To check possible adverse side effects caused by the administration of the compound, the weight, heart weight and liver weight of each mouse were measured. GPT and GOT values were also calculated by employing a kit available in the market.

[3] = system: ob/ob mice; conditions: relative to control
Protocol: The effectiveness in lowering blood glucose level of the inventive compound was examined using ob/ob mice (male, 8-9 week old), a type 2 diabetes model animals which expresses signs of hyperglycemia and hyperinsulinemia, bred in house facilities of Korea Research Institute of Chemical Technology.
(§1) The resulting solution was intraperitoneally administered to the mice at a dose of 50 mg/kg, once a day for 5 days, or orally administered to the mice, at a dose of 100 mg/kg, twice a day for 14 days. Days 1, 3 and 5 were selected for intraperitoneal administration, and days 5, 10 and 14, for oral administration, to collect blood samples for measuring the blood glucose levels. […] Upon the completion of the oral administration for 14 days, the mice were fasted for 16 hrs to perform OGTT (Oral Glucose Tolerance Test) to determine the changes in insulin sensitivity induced by the oral administration. After administrating glucose to the mice at a dose of 2 g/kg orally, blood samples were collected at 0, 15, 30 60 and 120 minutes to measure blood glucose levels.

[4] = system: C57/BL6J mice
Protocol: as §2

[5] = system: ob/ob mice; conditions: total amount of blood glucose over 120 minutes after glucose 2 g/kg orally, after 14 days oral administration
Protocol: as §1

[6] = system: C57/BL6J mice; conditions: high fat diet C57/BL6J mice, after oral administration for 14 days once a day
Protocol: as §1

[7] = high fat diet C57/BL6J mice, oral administration for 14 days once a day

SMILES: CCOC(=O)C1=C(c2ccccc2)c2ccc(OC)cc2C1OCC (centres unmarked) [Compound 19, 1-ethoxy-6-methoxy-3-phenyl-1H-indene-2-carboxylic acid ethyl ester]
EC50 [1]: 20 nM

SMILES: CN(CCOc1ccc(CC2SC(=O)NC2=O)cc1)c1ccccn1 (centres unmarked) [Rosiglitazone, reference compound]
GOT [2]: 40 ± 7.1 karmen | GPT [2]: 79 ± 8.3/ karmen | Heart Weight [2]: 0.133 ± 0.004 g | Liver Weight [2]: 1.35 ± 0.14 g | Weight [2]: 40 ± 1.6 g

SMILES: CCOC(=O)C1=C(c2ccccc2)c2ccc(OC)cc2C1NC1CCCCC1 (centres unmarked) [Compound 32, 1-cyclohexyl amino-6-methoxy-3-phenyl-1H-indene-2-carboxylic acid ethyl ester]
EC50 [1]: 250 nM

SMILES: CCOC(=O)C1=C(c2ccccc2)c2ccc(OCCc3ccccn3)cc2C1(O)c1ccccc1 (centres unmarked) [Compound 10, 1-hydroxy-1,3-diphenyl-6-(2-pyridine-2-yl-ethoxy)-1H-indene-2-carboxylic acid ethyl ester]
EC50 [1]: 150 nM

SMILES: CCOC(=O)C1=C(c2ccccc2)c2ccc(OCCN3CCOCC3)cc2C1(O)c1ccccc1 (centres unmarked) [The Inventive Compound, 1-hydroxy-6-(2-morpholine-4-yl-ethoxy)-1,3-diphenyl-1H-indene-2-carbo-xylic acid ethyl ester]
Side effects (summary in words) ([2]; administered orally or intraperitoneally): no side effects such as weight gain, hepatotoxicity or cardiotoxicity | GOT [2]: 35 ± 6.2 karmen | GPT [2]: 47 ± 6.5/ karmen | Heart Weight [2]: 0.117 ± 0.012 g | Liver Weight [2]: 1.22 ± 0.10 g | Weight [2]: 37 ± 2.0 g | Extent of Inhibition (%) of blood glucose level ([3]; Intraperitoneal Administration (50 mg/kg/day), once a day for 5 days): 32.0% | Extent of Inhibition (%) of blood glucose level ([3]; Oral Administration (100 mg/kg/day), 14 days): 23.7% | Effect in lowering blood glucose and insulin levels (summary in words) ([4]; administered orally or intraperitoneally, Tables 6, 7 and 8): excellent effect in lowering both blood glucose and insulin levels | Inhibition Ratio (%), Blood Insulin level [4, 7]: 44.6% | Inhibition Ratio (%), Blood glucose level [4, 7]: 30.0% | Extent of Inhibition (%), Oral Glucose Tolerance Test (Blood Glucose) [5]: 10.2% | Inhibition Ratio (%), Oral Glucose Tolerance Test (Glucose) [6]: 23.8% | Inhibition Ratio (%), Oral Glucose Tolerance Test (Insulin) [6]: 56.2%

SMILES: CCOC(=O)C1=C(c2ccccc2)c2ccc(OC)cc2C1(C)O (centres unmarked) [Compound 4, 1-hydroxy-6-methoxy-1-methyl-3-phenyl-1H-indene-2-carboxylic acid ethyl ester]
EC50 [1]: 230 nM

SMILES: CCOC(=O)C1=C(c2ccccc2)c2ccc(OC)cc2C1NC(=O)CC (centres unmarked) [Compound 25, 6-methoxy-3-phenyl-1-propionylamino-1H-indene-2-carboxylic acid ethyl ester]
EC50 [1]: 12 nM

Continued by falling EC50 [1], values first:

EC50 [1]: 250 nM
SMILES: CCOC(=O)C1=C(c2ccccc2)c2ccc(OC)cc2C1(O)C(C)C (centres unmarked) [Compound 3, 1-hydroxy-1-isopropyl-6-methoxy-3-phenyl-1H-indene-2-carboxylic acid ethyl ester]

EC50 [1]: 230 nM
SMILES: COc1ccc2c(c1)C(O)(Cc1ccccc1)C(C(=O)O)=C2c1ccccc1 (centres unmarked) [Compound 15, 1-benzyl-1-hydroxy-6-methoxy-3-phenyl-1H-indene-2-carboxylic acid]

EC50 [1]: 100 nM
SMILES: N#CC1=C(c2ccccc2)c2ccc(OCCCc3ccccc3)cc2C1(O)c1ccccc1 (centres unmarked) [Compound 11, 1-hydroxy-1,3-diphenyl-6-(3-phenyl-propoxy)-1H-indene-2-carbonitrile]

EC50 [1]: 95 nM
SMILES: CCOC(=O)C1=C(c2ccccc2)c2ccc(OC)cc2C1(O)Cc1ccccc1 (centres unmarked) [Compound 5, 1-benzyl-1-hydroxy-6-methoxy-3-phenyl-1H-indene-2-carboxylic acid ethyl ester]

EC50 [1]: 75 nM | melting point: 121 to 123 °C
SMILES: CCOC(=O)C1=C(c2ccccc2)c2ccc(OCCN3CCOCC3)cc2C1(O)c1ccccc1 (centres unmarked) [Compound 8, 1-hydroxy-6-(2-morpholine-4-yl-ethoxy)-1,3-diphenyl-1H-indene-2-carboxylic acid ethyl ester]

EC50 [1]: 50 nM
SMILES: CCOC(=O)C1=C(c2ccccc2)c2ccc(OC)cc2C1(O)C1CCCCC1 (centres unmarked) [Compound 6, 1-cyclohexyl-1-hydroxy-6-methoxy-3-phenyl-1H-indene-2-carboxylic acid ethyl ester]

EC50 [1]: 50 nM
SMILES: CCOC(=O)C1=C(c2ccccc2)c2ccc(OC)cc2C1NC(C)=O (centres unmarked) [Compound 24, 1-acetylamino-6-methoxy-3-phenyl-1H-indene-2-carboxylic acid ethyl ester]

EC50 [1]: 45 nM
SMILES: CCOC(=O)C1=C(c2ccccc2)c2ccc(OC)cc2C1OC (centres unmarked) [Compound 18, 1,6-dimethoxy-3-phenyl-1H-indene-2-carboxylic acid ethyl ester]

EC50 [1]: 40 nM
SMILES: CCOC(=O)C1=C(c2ccccc2)c2ccc(OCCCc3ccccc3)cc2C1NC(C)=O (centres unmarked) [Compound 26, 1-acetylamino-3-phenyl-6-(3-phenyl-propoxy)-1H-indene-2-carboxylic acid ethyl ester]

EC50 [1]: 25 nM
SMILES: CCOC(=O)C1=C(c2ccccc2)c2ccc(OCCCc3ccccc3)cc2C1(O)c1ccccc1 (centres unmarked) [Compound 7, 1-hydroxy-1,3-diphenyl-6-(3-phenyl-propoxy)-1H-indene-2-carboxylic acid ethyl ester]
